Reference: publication PMC9403976, “Elucidating the path to Plasmodium prolyl-tRNA synthetase inhibitors that overcome halofuginone resistance” (Nature Communications, 2022)
pKd: −log10 of the molar value. Values joined by “and” are separate entries in the source; they are usually repeats but may differ in a detail not shown here. Identical values can stand only once. Like-named read-outs stand apart in the source and are kept apart here.

Columns and labels:
P. falciparum Dd2-2D4 = test: P. falciparum asexual blood stage (ABS) growth assay, SYBR Green, 72 h, wild-type parasites; assay type: cell-based, Plasmodium falciparum
[1] = tested on: P. falciparum Dd2-2D4 NCP26 selections S1-3; test: ABS growth assay on bulk populations and clones from NCP26 resistance selections S1-3; assay type: cell-based, Plasmodium falciparum; conditions: for Fold-change Resistance: independent experiments; for EC50: Plasmodium falciparum
Method: In short, P. falciparum erythrocytic-stage parasites at 1% parasitemia and 1% hematocrit in RPMI + 0.5% Albumax were seeded at 40 μL/well in 384-well plates with test compounds in triplicate, dose-response format with 10 μM dihydroartemisinin as a kill-control and blank (no compound) wells as a growth-control. […] After 72 h, growth was quantified by measuring fluorescence (Molecular Devices SpectraMax iD5) following SYBR Green 1 staining. Data were analyzed in Excel and plotted in PRISM (V. 8.4.3–9.1.0, GraphPad).
This cycle was repeated for ~50 generations (~100 days), corresponding to 5–6 cycles of drug pressure.
Clonal parasites were isolated from each selection flask by limiting dilution of ring stage parasites in 96-well plates to an average of 0.8 and 0.2 parasites per well.

HsProRS [2] = molecular target: T1, HsProRS (Homo sapiens, UniProt P07814); test: TR-FRET ligand displacement assay with tracer MAT379 (CoraFluor-1-Halo and anti-His6 antibody formats); assay type: binding; set-up: made in house; host or cells: E. coli SoluBL-21; conditions: for normalized TR-FRET signal (Fig 2k): 15 pM HT-HsProRS; for normalized TR-FRET signal (dose-response replicates): SI Fig 15, titrating, listed as ProSA (25)
HsProRS [3] = molecular target: T1, HsProRS; conditions: ref Heacock et al.; cited from earlier work
HT-HsProRS [4] = molecular target: T2, HT-HsProRS (Homo sapiens, UniProt P07814); conditions: replicates 1-4
T2 sequence (P07814 996-1512): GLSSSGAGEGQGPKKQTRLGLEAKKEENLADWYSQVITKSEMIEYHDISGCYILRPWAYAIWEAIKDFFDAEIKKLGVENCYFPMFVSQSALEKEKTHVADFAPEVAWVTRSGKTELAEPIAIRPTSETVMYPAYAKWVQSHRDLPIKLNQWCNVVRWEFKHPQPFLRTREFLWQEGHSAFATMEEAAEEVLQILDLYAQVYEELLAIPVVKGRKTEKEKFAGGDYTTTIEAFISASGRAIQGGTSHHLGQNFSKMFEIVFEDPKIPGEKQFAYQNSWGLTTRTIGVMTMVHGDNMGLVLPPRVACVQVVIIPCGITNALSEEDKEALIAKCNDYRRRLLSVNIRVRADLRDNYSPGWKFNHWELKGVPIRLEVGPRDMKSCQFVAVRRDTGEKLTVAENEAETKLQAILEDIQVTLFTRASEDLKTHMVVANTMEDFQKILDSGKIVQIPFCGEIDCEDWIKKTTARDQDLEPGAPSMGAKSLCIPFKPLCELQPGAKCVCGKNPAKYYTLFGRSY
Method: (§1) A Multidrop Combi Reagent Dispenser (Thermo Fisher Scientific) was used to dispense 20 μL of 2× protein solution into each well. […] Plates were mixed on an Ika MTS 2/4 Digital Microtiter Shaker at 750 rpm for 2 min, centrifuged at 1000 × g at 25 °C for 1 min, and allowed to equilibrate for 2 h at room temperature before TR-FRET measurements were taken.
(§2) PRISM (V. 8.4.3–9.1.0, GraphPad) was used to perform non-linear regression analysis (log(inhibitor) vs. response–Variable slope (four parameters)), plot dose-response curves, and calculate IC50 values. The Cheng–Prusoff equation was used to convert IC50 to KD values (Eq. (4)):4 KD=IC50/1+[MAT379]/KD,MAT379

HT-HsProRS [5] = molecular target: T2, HT-HsProRS; test: biochemical
Method: as §1, §2

HT-PfcProRS [6] = molecular target: T3, HT-PfcProRS (Plasmodium falciparum, UniProt Q8I5R7)
Method: as §1, §2

HT-PfcProRS [7] = molecular target: T3, HT-PfcProRS; test: biochemical
Method: as §1, §2

T3 sequence (Q8I5R7 249-746): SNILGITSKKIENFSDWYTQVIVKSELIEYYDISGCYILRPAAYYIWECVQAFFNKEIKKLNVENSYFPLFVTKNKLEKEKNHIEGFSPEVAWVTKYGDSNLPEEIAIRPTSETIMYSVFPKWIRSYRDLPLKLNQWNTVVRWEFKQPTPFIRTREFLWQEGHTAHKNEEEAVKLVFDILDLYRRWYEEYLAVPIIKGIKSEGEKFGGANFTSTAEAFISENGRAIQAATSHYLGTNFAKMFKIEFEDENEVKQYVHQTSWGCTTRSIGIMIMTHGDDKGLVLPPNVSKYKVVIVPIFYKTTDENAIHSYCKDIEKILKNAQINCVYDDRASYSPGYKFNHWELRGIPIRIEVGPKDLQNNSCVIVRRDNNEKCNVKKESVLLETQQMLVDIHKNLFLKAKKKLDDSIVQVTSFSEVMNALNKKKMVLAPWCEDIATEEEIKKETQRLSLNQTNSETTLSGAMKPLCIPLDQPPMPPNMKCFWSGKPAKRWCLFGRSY

## C[C@H]1[C@@H](O)O[C@@H]2O[C@@]3(C)CC[C@H]4[C@H](C)CC[C@@H]1[C@@]24OO3 [Dihydroartemesinin (DHA)]
P. falciparum Dd2-2D4; Dd2-2D4, independent experiments
  Fold-change Resistance: 0.78 and 1.22 and 1
[1]; S1 - Clone A8
  Fold-change Resistance: 0.68 and 0.97
[1]; S2 - Clone B9
  Fold-change Resistance: 2.04
[1]; S3 - Clone B3
  Fold-change Resistance: 0.71 and 0.6

## Nc1ncnc2c1ncn2[C@@H]1O[C@H](COS(=O)(=O)NC(=O)[C@@H]2CCCN2)[C@@H](O)[C@H]1O [ProSA, reference compound]
P. falciparum Dd2-2D4; Plasmodium falciparum, DD2, SI Fig 16b, values on -log scale, read-out: ABS - Dd2-2D4 (converted)
  EC50: 151 nM
[1]; DD2, cell line S1 - Clone A8, read-out: EC50 [nM] mean
  EC50: 258 nM
[1]; DD2, cell line S2 - Clone A3, read-out: EC50 [nM] mean
  EC50: 209 nM
[1]; DD2, cell line S2 - Clone B9, read-out: EC50 [nM] mean
  EC50: 267 nM
[1]; DD2, cell line S2 - Clone C5, read-out: EC50 [nM] mean
  EC50: 243 nM
[1]; DD2, cell line S3 - Clone B3, read-out: EC50 [nM] mean
  EC50: 593 nM
[1]; DD2, cell line S3 - Clone B7, read-out: EC50 [nM] mean
  EC50: 909 nM
[1]; DD2, read-out: EC50 [nM] mean, cell line S3 - Clone B2
  EC50: 838 nM
HsProRS [2]; Log[inhibitor] (M) -10.319
  normalized TR-FRET signal (Fig 2k): 9.27E-01 and 5.96E-01 and 5.68E-01 and 6.24E-01 and 7.95E-01 and 4.77E-01
HsProRS [2]; Log[inhibitor] (M) -10.921
  normalized TR-FRET signal (Fig 2k): 1.19E+00 and 1.45E+00 and 8.99E-01 and 1.44E+00
HsProRS [2]; Log[inhibitor] (M) -11.098
  normalized TR-FRET signal (Fig 2k): 1.29E+00 and 1.17E+00 and 7.99E-01 and 9.06E-01
HsProRS [2]; Log[inhibitor] (M) -8.208
  normalized TR-FRET signal (Fig 2i): 2.86E-01 and 2.69E-01 and 2.23E-01
  normalized TR-FRET signal (Fig 2j): 2.20E-01 and 2.14E-01 and 2.31E-01
  normalized TR-FRET signal (dose-response replicates): 2.09E-01 and 4.52E-01 and 3.79E-01
HsProRS [2]; Log[inhibitor] (M) -8.509
  normalized TR-FRET signal (Fig 2i): 5.48E-01 and 5.47E-01 and 6.11E-01
  normalized TR-FRET signal (Fig 2j): 6.99E-01 and 6.28E-01 and 5.28E-01
  normalized TR-FRET signal (dose-response replicates): 6.59E-01 and 7.25E-01 and 6.81E-01
HsProRS [2]; Log[inhibitor] (M) -8.796
  normalized TR-FRET signal (Fig 2i): 8.53E-01 and 8.04E-01 and 8.09E-01
  normalized TR-FRET signal (Fig 2j): 7.16E-01 and 7.19E-01 and 8.75E-01
  normalized TR-FRET signal (dose-response replicates): 8.90E-01 and 6.94E-01 and 8.02E-01
HsProRS [2]; Log[inhibitor] (M) -9.108
  normalized TR-FRET signal (Fig 2i): 9.05E-01 and 8.48E-01 and 8.77E-01
  normalized TR-FRET signal (Fig 2j): 8.43E-01 and 8.74E-01 and 8.91E-01
  normalized TR-FRET signal (dose-response replicates): 8.78E-01 and 8.82E-01
HsProRS [2]; Log[inhibitor] (M) -9.409
  normalized TR-FRET signal (Fig 2i): 8.95E-01
HsProRS [2]; Log[inhibitor] (M) -10.602
  normalized TR-FRET signal (Fig 2j): 8.90E-01
  normalized TR-FRET signal (dose-response replicates): 1.29E+00
HsProRS [2]; Log[inhibitor] (M) -7.601
  normalized TR-FRET signal (dose-response replicates): -6.47E-02 and -3.87E-03 and 4.40E-03
HsProRS [2]; Log[inhibitor] (M) -7.904
  normalized TR-FRET signal (dose-response replicates): 4.29E-02 and -1.08E-01 and 6.52E-02
HsProRS [2]; Log[inhibitor] (M) -10.301
  normalized TR-FRET signal (dose-response replicates): 9.09E-01
HsProRS [2]; Log[inhibitor] (M) -11
  normalized TR-FRET signal (dose-response replicates): 9.02E-01

## O=C(O)[C@@H]1CCCN1 [proline]
HsProRS [3]
  Km: 180 µM
HT-HsProRS [4]; Log[Substrate] (M) -1.000
  Proline - […] HT-HsProRS - 1000nM MAT379: 5.08E-02 and 1.93E-02 and 4.05E-02 and 1.78E-02
HT-HsProRS [4]; Log[Substrate] (M) -1.301
  Proline - […] HT-HsProRS - 1000nM MAT379: 6.44E-02 and 4.43E-02 and 5.23E-02 and 4.24E-02
HT-HsProRS [4]; Log[Substrate] (M) -1.602
  Proline - […] HT-HsProRS - 1000nM MAT379: 7.04E-02 and 4.04E-02 and 8.19E-02 and 3.22E-02
HT-HsProRS [4]; Log[Substrate] (M) -1.903
  Proline - […] HT-HsProRS - 1000nM MAT379: 1.06E-01 and 8.64E-02 and 1.07E-01 and 6.69E-02
HT-HsProRS [4]; Log[Substrate] (M) -2.204
  Proline - […] HT-HsProRS - 1000nM MAT379: 7.48E-02 and 1.05E-01 and 9.62E-02 and 1.28E-01
HT-HsProRS [4]; Log[Substrate] (M) -2.505
  Proline - […] HT-HsProRS - 1000nM MAT379: 7.61E-02 and 5.21E-02 and 2.93E-02 and 5.48E-02
HT-HsProRS [4]; Log[Substrate] (M) -2.806
  Proline - […] HT-HsProRS - 1000nM MAT379: 2.57E-02 and 8.53E-02 and 3.59E-02 and 4.74E-02
HT-HsProRS [4]; Log[Substrate] (M) -3.107
  Proline - […] HT-HsProRS - 1000nM MAT379: 9.60E-02 and 9.41E-02 and 9.82E-02 and 9.09E-02
HT-HsProRS [4]; Log[Substrate] (M) -3.408
  Proline - […] HT-HsProRS - 1000nM MAT379: 8.87E-02 and 1.50E-01 and 1.08E-01 and 8.19E-02
HT-HsProRS [4]; Log[Substrate] (M) -3.709
  Proline - […] HT-HsProRS - 1000nM MAT379: 1.42E-01 and 1.36E-01 and 1.15E-01 and 1.26E-01
HT-HsProRS [4]; Log[Substrate] (M) -4.010
  Proline - […] HT-HsProRS - 1000nM MAT379: 2.43E-01 and 1.82E-01 and 1.50E-01 and 1.67E-01
HT-HsProRS [4]; Log[Substrate] (M) -4.311
  Proline - […] HT-HsProRS - 1000nM MAT379: 2.57E-01 and 2.23E-01 and 2.59E-01 and 1.99E-01
HT-HsProRS [4]; Log[Substrate] (M) -4.612
  Proline - […] HT-HsProRS - 1000nM MAT379: 2.84E-01 and 3.36E-01 and 2.90E-01 and 3.09E-01
HT-HsProRS [4]; Log[Substrate] (M) -4.913
  Proline - […] HT-HsProRS - 1000nM MAT379: 3.43E-01 and 3.30E-01 and 3.37E-01 and 3.11E-01
HT-HsProRS [4]; Log[Substrate] (M) -5.214
  Proline - […] HT-HsProRS - 1000nM MAT379: 3.51E-01 and 3.56E-01 and 3.15E-01 and 3.55E-01
HT-HsProRS [4]; Log[Substrate] (M) -5.515
  Proline - […] HT-HsProRS - 1000nM MAT379: 4.26E-01 and 4.08E-01 and 4.22E-01 and 4.16E-01
HT-HsProRS [4]; Log[Substrate] (M) -5.816
  Proline - […] HT-HsProRS - 1000nM MAT379: 4.12E-01 and 3.85E-01 and 3.49E-01 and 3.26E-01
HT-HsProRS [4]; Log[Substrate] (M) -6.118
  Proline - […] HT-HsProRS - 1000nM MAT379: 4.73E-01 and 4.43E-01 and 3.95E-01 and 3.89E-01
HT-HsProRS [5]; HsProRS (KD [nM]) mean, substrates, substrate KD, (-)
  Kd: 30600 nM
HT-HsProRS [5]; KD of substrate, […] HT-HsProRS, 1000 nM MAT379
  pKd: 4.17
HT-PfcProRS [6]
  fold lower affinity for PfcProRS than MAT379: ~ 4,500 fold
HT-PfcProRS [7]
  pKd: 3.34
